Measurements published in PubChem BioAssay AID330 (DTP/NCI, 2004).
Several values for one entry are separate records, joined by “and”; a condition that tells them apart may be missing. Equal values may be shown once. Inconclusive results and toxic doses are left out.

Test system: P388 leukemia ip, CD2F1 mice, survival T/C
Experiment: NCI In Vivo Anticancer Drug Screen. Data for tumor model P388 Leukemia (intraperitoneal) in CD2F1 (CDF1) mice
Settings: endpoint: median survival time, higher = longer survival
In short: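 Mice carrying the transplanted tumor received test compound or vehicle. Survival was recorded in each group, and the value is the treated-group measurement divided by that of the vehicle-treated control group.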

In the case of `COc1cccc2c1C(=O)c1c(O)c3c(c(O)c1C2=O)C[C@@](O)(C(C)=O)C[C@@H]3OC1CC(N)C(O)C(C)O1` (stereo partly drawn), the T/C (dose: 0.06 mg/kg/injection, schedule: Q01DX009 (ip), vehicle: water) is reported as 104 % of control and 118 % of control, the T/C (dose: 0.06 mg/kg/injection, schedule: Q03HX008 (ip), vehicle: saline) is reported as 118 % of control and the T/C (dose: 0.08 mg/kg/injection, schedule: Q01DX005 (ip), vehicle: saline) is reported as 118 % of control. The T/C (dose: 0.12 mg/kg/injection, schedule: Q01DX005 (ip), vehicle: water) was 114 % of control, the T/C (dose: 0.13 mg/kg/injection, schedule: Q03HX008 (ip), vehicle: saline) was 120 % of control and the T/C (dose: 0.16 mg/kg/injection, schedule: Q01DX005 (ip), vehicle: saline) was 150 % of control and 167 % of control. The T/C (dose: 0.16 mg/kg/injection, schedule: Q01DX009 (ip), vehicle: saline) was 168 % of control, the T/C (dose: 0.21 mg/kg/injection, schedule: Q01DX009 (ip), vehicle: water) was 150 % of control and the T/C (dose: 0.25 mg/kg/injection, schedule: Q01DX005 (ip), vehicle: water) was 112 % of control. For the same compound, the T/C (dose: 0.25 mg/kg/injection, schedule: Q04DX003 (ip), vehicle: saline) was 100 % of control, the T/C (dose: 0.32 mg/kg/injection, schedule: Q01DX001 (ip), vehicle: saline) was 150 % of control and the T/C (dose: 0.32 mg/kg/injection, schedule: Q01DX005 (ip), vehicle: saline) was 175 % of control. The T/C (dose: 0.32 mg/kg/injection, schedule: Q01DX009 (ip), vehicle: saline) was 166 % of control, the T/C (dose: 0.32 mg/kg/injection, schedule: Q03HX040 (ip), vehicle: saline) was 116 % of control and the T/C (dose: 0.39 mg/kg/injection, schedule: Q01DX009 (ip), vehicle: saline) was 172 % of control. The T/C (dose: 0.42 mg/kg/injection, schedule: Q01DX009 (ip), vehicle: water) was 150 % of control and 155 % of control, the T/C (dose: 0.5 mg/kg/injection, schedule: Q01DX001 (ip), vehicle: saline) was 108 % of control and the T/C (dose: 0.5 mg/kg/injection, schedule: Q01DX005 (ip), vehicle: water) was 107 % of control. The T/C (dose: 0.5 mg/kg/injection, schedule: Q01DX005 (oral), vehicle: water) was 105 % of control, the T/C (dose: 0.5 mg/kg/injection, schedule: Q01DX010 (ip), vehicle: saline) was 163 % of control and the T/C (dose: 0.5 mg/kg/injection, schedule: Q04DX003 (ip), vehicle: saline) was 109 % of control. The T/C (dose: 0.63 mg/kg/injection, schedule: Q01DX001 (ip), vehicle: saline) was 166 % of control, the T/C (dose: 0.63 mg/kg/injection, schedule: Q01DX009 (ip), vehicle: saline) was 171 % of control and the T/C (dose: 0.63 mg/kg/injection, schedule: Q03HX040 (ip), vehicle: saline) was 112 % of control. The T/C (dose: 0.64 mg/kg/injection, schedule: Q01DX001 (ip), vehicle: saline) was 160 % of control, the T/C (dose: 0.75 mg/kg/injection, schedule: Q04DX003 (ip), vehicle: saline) was 110 % of control and 119 % of control and the T/C (dose: 0.83 mg/kg/injection, schedule: Q01DX009 (ip), vehicle: water) was 164 % of control and 169 % of control. For the same compound, the T/C (dose: 1.0 mg/kg/injection, schedule: Q01DX001 (ip), vehicle: saline) was 115 % of control, the T/C (dose: 1.0 mg/kg/injection, schedule: Q01DX005 (oral), vehicle: water) was 102 % of control and the T/C (dose: 1.0 mg/kg/injection, schedule: Q01DX010 (ip), vehicle: saline) was 172 % of control. The T/C (dose: 1.0 mg/kg/injection, schedule: Q04DX002 (ip), vehicle: water) was 158 % of control, the T/C (dose: 1.0 mg/kg/injection, schedule: Q04DX003 (iv), vehicle: saline) was 98 % of control and the T/C (dose: 1.08 mg/kg/injection, schedule: Q01DX009 (ip), vehicle: saline) was 172 % of control. For the same compound, the T/C (dose: 1.08 mg/kg/injection, schedule: Q04DX003 (ip), vehicle: saline) was 150 % of control and 152 % of control, the T/C (dose: 1.08 mg/kg/injection, schedule: Q04DX003 (ip), vehicle: water) was 157 % of control and the T/C (dose: 1.25 mg/kg/injection, schedule: Q01DX001 (ip), vehicle: saline) was 154 % of control. For the same compound, the T/C (dose: 1.25 mg/kg/injection, schedule: Q01DX005 (ip), vehicle: saline) was 162 % of control, the T/C (dose: 1.25 mg/kg/injection, schedule: Q03HX008 (ip), vehicle: saline) was 167 % of control and the T/C (dose: 1.3 mg/kg/injection, schedule: Q01DX001 (ip), vehicle: water) was 154 % of control. For the same compound, the T/C (dose: 1.5 mg/kg/injection, schedule: Q04DX003 (ip), vehicle: saline) was 116 % of control and 117 % of control, the T/C (dose: 1.67 mg/kg/injection, schedule: Q01DX009 (ip), vehicle: water) was 123 % of control and the T/C (dose: 1.8 mg/kg/injection, schedule: Q01DX001 (ip), vehicle: water) was 162 % of control. The T/C (dose: 1.8 mg/kg/injection, schedule: Q01DX009 (ip), vehicle: saline) was 163 % of control, the T/C (dose: 1.8 mg/kg/injection, schedule: Q04DX003 (ip), vehicle: saline) was 154 % of control and the T/C (dose: 1.8 mg/kg/injection, schedule: Q04DX003 (ip), vehicle: water) was 160 % of control. The T/C (dose: 2.0 mg/kg/injection, schedule: Q01DX001 (ip), vehicle: saline) was 114 % of control, the T/C (dose: 2.0 mg/kg/injection, schedule: Q01DX005 (ip), vehicle: water) was 153 % of control and the T/C (dose: 2.0 mg/kg/injection, schedule: Q01DX005 (oral), vehicle: water) was 114 % of control. For the same compound, the T/C (dose: 2.0 mg/kg/injection, schedule: Q03HX024 (ip), vehicle: saline) was 156 % of control, the T/C (dose: 2.0 mg/kg/injection, schedule: Q04DX003 (iv), vehicle: saline) was 102 % of control and the T/C (dose: 2.4 mg/kg/injection, schedule: Q01DX001 (ip), vehicle: water) was 163 % of control. The T/C (dose: 2.5 mg/kg/injection, schedule: Q03HX008 (ip), vehicle: saline) was 170 % of control, the T/C (dose: 3.0 mg/kg/injection, schedule: Q01DX001 (ip), vehicle: saline) was 150 % of control and 153 % of control and the T/C (dose: 3.0 mg/kg/injection, schedule: Q01DX009 (ip), vehicle: saline) was 104 % of control. For the same compound, the T/C (dose: 3.2 mg/kg/injection, schedule: Q01DX001 (ip), vehicle: water) was 171 % of control, the T/C (dose: 4.0 mg/kg/injection, schedule: Q01DX001 (ip), vehicle: saline) was 160 % of control and the T/C (dose: 4.0 mg/kg/injection, schedule: Q01DX004 (ip), vehicle: saline) was 99 % of control. The T/C (dose: 4.0 mg/kg/injection, schedule: Q01DX005 (ip), vehicle: water) was 164 % of control, the T/C (dose: 4.0 mg/kg/injection, schedule: Q01DX005 (oral), vehicle: water) was 104 % of control and the T/C (dose: 4.0 mg/kg/injection, schedule: Q04DX003 (iv), vehicle: saline) was 104 % of control and 113 % of control and 121 % of control. For the same compound, the T/C (dose: 4.2 mg/kg/injection, schedule: Q01DX001 (ip), vehicle: water) was 174 % of control, the T/C (dose: 4.5 mg/kg/injection, schedule: Q01DX001 (ip), vehicle: saline) was 166 % of control and the T/C (dose: 4.5 mg/kg/injection, schedule: Q04DX003 (ip), vehicle: saline) was 159 % of control. For the same compound, the T/C (dose: 5.0 mg/kg/injection, schedule: Q01DX001 (ip), vehicle: saline) was 159 % of control and 174 % of control, the T/C (dose: 5.0 mg/kg/injection, schedule: Q01DX009 (ip), vehicle: water) was 100 % of control and the T/C (dose: 5.0 mg/kg/injection, schedule: Q04DX003 (ip), vehicle: saline) was 118 % of control. The T/C (dose: 5.0 mg/kg/injection, schedule: Q04DX003 (ip), vehicle: water) was 118 % of control, the T/C (dose: 5.6 mg/kg/injection, schedule: Q01DX001 (ip), vehicle: water) was 106 % of control and the T/C (dose: 6.0 mg/kg/injection, schedule: Q04DX003 (ip), vehicle: saline) was 122 % of control. The T/C (dose: 7.5 mg/kg/injection, schedule: Q01DX001 (ip), vehicle: water) was 116 % of control, the T/C (dose: 8.0 mg/kg/injection, schedule: Q01DX001 (ip), vehicle: saline) was 124 % of control and the T/C (dose: 8.0 mg/kg/injection, schedule: Q01DX005 (oral), vehicle: water) was 102 % of control. The T/C (dose: 8.0 mg/kg/injection, schedule: Q04DX003 (iv), vehicle: saline) was 150 % of control, the T/C (dose: 10.0 mg/kg/injection, schedule: Q01DX009 (ip), vehicle: water) was 100 % of control and the T/C (dose: 12.0 mg/kg/injection, schedule: Q04DX003 (ip), vehicle: saline) was 150 % of control. The T/C (dose: 12.5 mg/kg/injection, schedule: Q04DX003 (ip), vehicle: saline) was 115 % of control, the T/C (dose: 16.0 mg/kg/injection, schedule: Q01DX005 (oral), vehicle: water) was 103 % of control and the T/C (dose: 16.0 mg/kg/injection, schedule: Q04DX003 (iv), vehicle: saline) was 104 % of control. The T/C (dose: 20.0 mg/kg/injection, schedule: Q01DX009 (ip), vehicle: water) was 110 % of control, the T/C (dose: 0.3 micrograms/kg/injection, schedule: Q03HX008 (ip), vehicle: saline) was 123 % of control and the T/C (dose: 0.6 micrograms/kg/injection, schedule: Q03HX040 (ip), vehicle: saline) was 109 % of control. For the same compound, the T/C (dose: 7.5 micrograms/kg/injection, schedule: Q03HX024 (ip), vehicle: saline) was 155 % of control and the T/C (dose: 16.3 micrograms/kg/injection, schedule: Q03HX024 (ip), vehicle: saline) was 165 % of control.
